Data set [1] deals with alcohol dehydrogenase (Thermoanaerobacter brockii). Nature of the data set: Compound was tested for enantioselectivity of alcohol dehydrogenase in thermoanaerobium brockii at a concentration of 5 ug/mL.
The subject of data set [2] is alcohol dehydrogenase (Lactobacillus kefiri). Nature of the data set: Compound was tested for enantioselectivity of alcohol dehydrogenase in lactobacillus kefir at a concentration of 50 ug/mL.
Data set [3] addresses Alcohol dehydrogenase (Equus caballus) (UniProt P00327+P00328). Nature of the data set: Compound was tested for enantioselectivity of alcohol dehydrogenase in horse liver at a concentration of 10 ug/mL.
In data set [4] the test system is alcohol dehydrogenase (Saccharomyces cerevisiae). The experiment in a line: Compound was tested for enantioselectivity of alcohol dehydrogenase in yeast at a concentration of 100 ug/mL.
Data set [5] in a line: Specificity constant of the BSA-catalyzed deprotonation of compound at pH 9. It is filed as ADME, Bos taurus. The conditions noted are these: cattle.
Data set [6] in a line: Half life in presence of 2 mg/mL BSA at pH 8.8. The conditions noted are these: cattle, bovine serum albumin solution. It is filed as ADME, Bos taurus.
Data set [7] can be described thus: Rate constant of the bovine serum albumin catalyzed reaction of the compound. It is filed as ADME, Bos taurus. The conditions noted are these: cattle.
Data set [8] is described as follows: Specificity constant of the bovine serum albumin catalyzed reaction expressed as (kcat/KM)/kuncat. It is filed as ADME, Bos taurus. The following applies: cattle.
Data set [9] is described as follows: Michaelis-Menten kinetics of the bovine serum albumin catalyzed reaction of the compound. It is filed as ADME, Bos taurus. The conditions noted are these: cattle.

Each structure is given as a SMILES string.

Consider `C[C@H](O)CCOc1ccc2ccc(=O)oc2c1`, for which the Selectivity worked out at 0.00132 µM/s in data set [1], 2.67e-05 µM/s in data set [2], 0.00246 µM/s in data set [3] and 0.000599 µM/s in data set [4].

For the compound `c1cnoc1` [ISOXAZOLE], the “(kcat/KM)/kuncat” value in data set [5] is 3600000 M⁻¹.

As to `CC(=O)CCOc1ccc2ccc(=O)oc2c1`, the half-life (usually the time needed for the level to fall by half in the phase considered) in data set [6] was 4 min. Moreover, in data set [7], the k cat came to 0.0078 s⁻¹ and the “k cat/Kuncat” value worked out at 390. Moreover, the “(kcat/KM)/kuncat” value in data set [8] was 2600000 M⁻¹. Moreover, the Km (in general, the substrate concentration at which the rate is half of its maximum) in [9] was 150 µM.

In the case of `C[C@@H](O)CCOc1ccc2ccc(=O)oc2c1`, the Selectivity in data set [1] stood at 6.61e-06 µM/s; in data set [2], 0.000773 µM/s; in data set [3], 0.00014 µM/s; in data set [4] it was 3.31e-06 µM/s.

The record behind these values is ChEMBL document CHEMBL1130811, “An enantioselective fluorimetric assay for alcohol dehydrogenases using albumin-catalyzed beta-elimination of umbelliferone” (Bioorg Med Chem Lett, 1998).
